Structures can show the parent of a compound that is named as a salt. Where two headings read alike, the source gives them in different places.
Target: T1, human mAChR M4 (Homo sapiens, UniProt P08173)
T1 sequence (P08173 1-479): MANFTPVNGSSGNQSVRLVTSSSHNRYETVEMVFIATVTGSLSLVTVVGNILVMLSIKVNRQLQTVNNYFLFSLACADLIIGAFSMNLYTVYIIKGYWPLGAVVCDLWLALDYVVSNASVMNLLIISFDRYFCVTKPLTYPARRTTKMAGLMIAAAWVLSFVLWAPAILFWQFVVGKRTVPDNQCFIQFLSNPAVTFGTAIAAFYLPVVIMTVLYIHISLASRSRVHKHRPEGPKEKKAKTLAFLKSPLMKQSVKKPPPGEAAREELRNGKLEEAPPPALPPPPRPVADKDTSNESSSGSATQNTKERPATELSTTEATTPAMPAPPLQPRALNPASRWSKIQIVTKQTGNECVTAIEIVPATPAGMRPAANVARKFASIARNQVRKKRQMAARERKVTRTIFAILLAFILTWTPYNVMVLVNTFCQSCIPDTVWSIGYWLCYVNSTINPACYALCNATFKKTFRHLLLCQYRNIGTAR
Assay: mAChR M4 cell-based functional assay (calcium flux), human M4
Settings: for EC50: Human M4 EC50 (nM), calcium flux, PAM activity with EC20 acetylcholine

[1] = Table 10, % ACh maximum at 30 μM

EC50 (Table 10)	Emax [1]	SMILES	Emax
529 nM	92%	Cc1nnc2sc3c(NCc4ccc(C(=O)N5CC[C@H](F)C5)cc4)ncnc3c2c1C [Compound 128, [4-[[(3,4-dimethylpyrimido [4′,5′:4,5]thieno[2,3-c]pyridazin-8-yl)amino]methyl]phenyl]-[(3S)-3-fluoropyrrolidin-1-yl]methanone]	–
446 nM	90.6%	Cc1nnc2sc3c(NCc4ccc(C(=O)N5CC[C@@H](F)C5)cc4)ncnc3c2c1C [Compound 129, [4-[[(3,4-dimethylpyrimido [4′,5′:4,5]thieno[2,3-c]pyridazin-8-yl)amino]methyl]phenyl]-[(3R)-3-fluoropyrrolidin-1-yl]methanone]	–
724 nM	93.2%	Cc1nnc2sc3c(NCc4ccc(C(=O)N5CCC(F)(F)CC5)cc4)ncnc3c2c1C [Compound 130, (4,4-difluoro-1-piperidyl)-[4-[[(3,4-dimethylpyrimido [4′,5′:4,5]thieno[2,3-c]pyridazin-8-yl)amino]methyl]phenyl]methanone]	–
276 nM	88.4%	Cc1nnc2sc3c(NCc4ccc(C(=O)N5CCC5)cc4)ncnc3c2c1C [Compound 131, azetidin-1-yl-[4-[[(3,4-dimethylpyrimido [4′,5′:4,5]thieno[2,3-c]pyridazin-8-yl)amino]methyl]phenyl]methanone]	–
309 nM	90.4%	Cc1nnc2sc3c(NCc4ccc(C(=O)N(C)C5CC5)cc4)ncnc3c2c1C [Compound 132, N-cyclopropyl-4-[[(3,4-dimethylpyrimido [4′,5′:4,5]thieno[2,3-c]pyridazin-8-yl)amino]methyl]-N-methyl-benzamide]	–
100 nM	86%	Cc1nnc2sc3c(NCc4ccc(C(=O)NC5CC5)cc4)ncnc3c2c1C [Compound 133, N-cyclopropyl-4-[[(3,4-dimethylpyrimido [4′,5′:4,5]thieno[2,3-c]pyridazin-8-yl)amino]methyl]benzamide]	–
469 nM	91.8%	Cc1nnc2sc3c(NCc4ccc(C(=O)N5CCC(F)(F)C5)cc4)ncnc3c2c1C [Compound 134, (3,3-difluoropyrrolidin-1-yl)-[4-[[(3,4-dimethylpyrimido [4′,5′:4,5]thieno[2,3-c]pyridazin-8-yl)amino]methyl]phenyl]methanone]	–
139 nM	87.8%	COc1ccc(CNc2ncnc3c2sc2nnc(C)c(C)c23)cc1 [Compound 135, N-[(4-methoxyphenyl)methyl]-3,4-dimethyl-pyrimido[4′,5′:4,5]thieno [2,3-c]pyridazin-8-amine]	–
388 nM	96.8%	COc1c(F)cc(CNc2ncnc3c2sc2nnc(C)c(C)c23)cc1F [Compound 136, N-[(3,5-difluoro-4-methoxy-phenyl)methyl]-3,4-dimethyl-pyrimido [4′,5′:4,5]thieno[2,3-c] pyridazin-8-amine]	–
222 nM	80.6%	Cc1nnc2sc3c(N(C)Cc4ccc(C(C)(C)O)cc4)ncnc3c2c1C [Compound 137, 2-[4-[[(3,4-dimethylpyrimido [4′,5′:4,5]thieno[2,3-c]pyridazin-8-yl)-methyl-amino]methyl]phenyl] propan-2-ol]	–
3090 nM	85%	Cc1nnc2sc3c(NCC45CC(C(C)(C)O)(C4)C5)ncnc3c2c1C [Compound 138, 2-[1-[[(3,4-dimethylpyrimido [4′,5′:4,5]thieno[2,3-c]pyridazin-8-yl)amino]methyl]-3-bicyclo[1.1.1]pentanyl]propan-2-ol]	–
422 nM	67.6%	Cc1nnc2sc3c(NC45CC(F)(C4)C5)ncnc3c2c1C [Compound 139, N-(3-fluoro-1-bicyclo [1.1.1]pentanyl)-3,4-dimethyl-pyrimido [4′,5′:4,5]thieno[2,3-c]pyridazin-8-amine]	–
1240 nM	80.3%	COC(=O)C12CC(CNc3ncnc4c3sc3nnc(C)c(C)c34)(C1)C2 [Compound 140, methyl 1-[[(3,4-dimethylpyrimido [4′,5′:4,5]thieno[2,3-c]pyridazin-8-yl)amino]methyl]bicyclo[1.1.1] pentane-3-carboxylate]	–
590 nM	66.4%	Cc1nnc2sc3c(N4CC(Nc5ncccc5C#N)C4)ncnc3c2c1C [Compound 141, 2-((1-(3,4-dimethylpyrimido [4′,5′:4,5]thieno[2,3-c]pyridazin-8-yl)azetidin-3-yl)amino) nicotinonitrile 2,2,2-trifluoroacetate]	–
1250 nM	53.6%	Cc1nnc2sc3c(N4Cc5ccc(C(C)(C)O)cc5C4)ncnc3c2c1C [Compound 142, 2-[2-(3,4-dimethylpyrimido [4′,5′:4,5]thieno[2,3-c]pyridazin-8-yl)isoindolin-5-yl]propan-2-ol; 2,2,2-trifluoroacetic acid]	–
779 nM	61.3%	Cc1nnc2sc3c(NCc4ccc(C(C)(O)C5CC5)cc4)ncnc3c2c1C (stereo not shown) [Compound 143, 1-cyclopropyl-1-[4-[[(3,4-dimethylpyrimido [4′,5′:4,5]thieno[2,3-c]pyridazin-8-yl)amino]methyl]phenyl]ethanol]	–
986 nM	78.3%	CCC(O)(CC)c1ccc(CNc2ncnc3c2sc2nnc(C)c(C)c23)cc1 [Compound 144, 3-[4-[[(3,4-dimethylpyrimido [4′,5′:4,5]thieno[2,3-c]pyridazin-8-yl)amino]methyl]phenyl]pentan-3-ol]	–
101 nM	82.1%	CNC(=O)c1ccc(CNc2ncnc3c2sc2nnc(C)c(C)c23)cc1 [Compound 145, 4-[[(3,4-dimethylpyrimido [4′,5′:4,5]thieno[2,3-c]pyridazin-8-yl)amino]methyl]-N-methyl-benzamide]	–
828 nM	97.7%	Cc1nnc2sc3c(NCc4ccc(C(F)(F)F)nc4)ncnc3c2c1C [Compound 146, 3,4-dimethyl-N-[[6-(trifluoromethyl)-3-pyridyl]methyl]pyrimido [4′,5′:4,5]thieno[2,3-c] pyridazin-8-amine hydrochloride]	–
156 nM	78.3%	Cc1nnc2sc3c(NCc4ccc(C(=O)NC5(C)CC5)cc4)ncnc3c2c1C [Compound 149, 4-[[(3,4-dimethylpyrimido [4′,5′:4,5]thieno[2,3-c]pyridazin-8-yl)amino]methyl]-N-(1-methylcyclopropyl) benzamide]	–
105 nM	74.9%	Cc1nnc2sc3c(NCc4ccc(C(=O)NC5CCC5)cc4)ncnc3c2c1C [Compound 150, N-cyclobutyl-4-[[(3,4-dimethylpyrimido [4′,5′:4,5]thieno[2,3-c]pyridazin-8-yl)amino]methyl]benzamide]	–

SMILES	EC50 (Table 10)	Emax [1]	Emax
Cc1cc(C)c(CNc2ncnc3c2sc2nnc(C)c(C)c23)cn1 [Compound 147, N-[(4,6-dimethyl-3-pyridyl)methyl]-3,4-dimethyl-pyrimido [4′,5′:4,5]thieno[2,3-c] pyridazin-8-amine hydrochloride]	429 nM	–	85.8%
Cc1cc(CNc2ncnc3c2sc2nnc(C)c(C)c23)cnc1C [Compound 148, N-[(5,6-dimethyl-3-pyridyl)methyl]-3,4-dimethyl-pyrimido [4′,5′:4,5]thieno[2,3-c] pyridazin-8-amine hydrochloride]	522 nM	–	84%

— patent US10239887B2, “Positive allosteric modulators of the muscarinic acetylcholine receptor M4” (Vanderbilt University, priority 2016, dated 2019)
